From patent publication US20250163066A1, “PROTACs of MALT1” (TEGID THERAPEUTICS, INC., priority 2022, published 2025) come the findings set out here.

Where only a bound is given, the exact number is not on record here.

This assay addresses MALT1 (Homo sapiens (Human), UniProt Q9UDY8). The assay is described as follows: MALT1 enzymatic activity inhibition (fluorescence, Ac-LRSR-AMC substrate). It is filed as biochemical. As to conditions: recombinant MALT1 1.5 ng/μl, Ac-LRSR-AMC 1 μM. A digest of the protocol:
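Recombinant human MALT1 (1.5 ng/μl final) preincubated 10 min at rt with compounds in 50 mM HEPES pH 7.2-7.4, 100 mM NaCl, 900 mM sodium citrate, 10 mM DTT; 1 μM Ac-LRSR-AMC then added. AMC fluorescence read at start and after 30 min 37 °C plus 30 min rt; difference gives signal, % inhibition fitted to IC50.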

MALT1, sequence (Q9UDY8 whole entry): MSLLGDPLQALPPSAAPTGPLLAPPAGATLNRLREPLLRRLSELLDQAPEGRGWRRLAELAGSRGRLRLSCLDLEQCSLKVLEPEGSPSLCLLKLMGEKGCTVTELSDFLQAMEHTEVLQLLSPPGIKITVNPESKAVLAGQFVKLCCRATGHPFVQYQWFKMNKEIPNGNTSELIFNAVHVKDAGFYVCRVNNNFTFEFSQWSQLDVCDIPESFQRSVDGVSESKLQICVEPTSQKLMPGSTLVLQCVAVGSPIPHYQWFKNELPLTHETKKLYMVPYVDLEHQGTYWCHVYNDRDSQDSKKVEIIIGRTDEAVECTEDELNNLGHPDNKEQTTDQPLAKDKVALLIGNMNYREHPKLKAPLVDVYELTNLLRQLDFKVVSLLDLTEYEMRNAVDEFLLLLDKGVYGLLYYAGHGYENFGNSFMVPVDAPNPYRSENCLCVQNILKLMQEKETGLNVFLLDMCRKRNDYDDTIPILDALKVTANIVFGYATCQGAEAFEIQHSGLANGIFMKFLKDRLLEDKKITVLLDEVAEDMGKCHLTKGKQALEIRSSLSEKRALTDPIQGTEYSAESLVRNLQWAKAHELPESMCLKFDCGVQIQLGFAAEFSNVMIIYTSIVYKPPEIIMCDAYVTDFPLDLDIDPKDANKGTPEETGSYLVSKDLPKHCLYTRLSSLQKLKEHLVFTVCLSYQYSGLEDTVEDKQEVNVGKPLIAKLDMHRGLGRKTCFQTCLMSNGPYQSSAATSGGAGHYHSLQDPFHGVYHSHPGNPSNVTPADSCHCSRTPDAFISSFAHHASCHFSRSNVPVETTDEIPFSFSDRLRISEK

By EC50 is commonly meant the concentration at which the effect is half-maximal. Consider `Cc1cc(NC(=O)Nc2cnc3ccnn3c2C(C)C)cnc1-c1noc(CCCCC(=O)N2CCN(c3ccc4c(c3)CN(C3CCC(=O)N(C)C3=O)C4=O)CC2)n1` (centres unmarked) [Compound 145, 1-(7-isopropylpyrazolo[1,5-a]pyrimidin-6-yl)-3-[5-methyl-6-[5-[5-[4-[2-(1-methyl-2,6-dioxo-3-piperidyl)-1-oxo-isoindolin-5-yl]piperazin-1-yl]-5-oxo-pentyl]-1,2,4-oxadiazol-3-yl]-3-pyridyl]urea], for which the EC50 was ≤ 0.2 µM.

As for `Cc1cc(NC(=O)Nc2cnc3ccnn3c2C2CCCC2)cnc1-c1noc(CCCCN2CCN(c3ccc4c(c3)CN(C3CCC(=O)NC3=O)C4=O)CC2)n1` (centres unmarked) [Compound 21, 1-(7-cyclopentylpyrazolo[1,5-a]pyrimidin-6-yl)-3-[6-[5-[4-[4-[2-(2,6-dioxo-3-piperidyl)-1-oxo-isoindolin-5-yl]piperazin-1-yl]butyl]-1,2,4-oxadiazol-3-yl]-5-methyl-3-pyridyl]urea], the half-maximal effective concentration (EC50) was ≤ 0.2 µM.

Take `O=C1CCC(N2Cc3cc(N4CCN(C(=O)CCCCCc5nc(-c6ncc(NC(=O)Nc7cnc8ccnn8c7C7CC7)cc6Cl)no5)CC4)ccc3C2=O)C(=O)N1` (centres unmarked) [Compound 158, 1-[5-chloro-6-[5-[6-[4-[2-(2,6-dioxo-3-piperidyl)-1-oxo-isoindolin-5-yl]piperazin-1-yl]-6-oxo-hexyl]-1,2,4-oxadiazol-3-yl]-3-pyridyl]-3-(7-cyclopropylpyrazolo[1,5-a]pyrimidin-6-yl)urea]: the EC50 is ≤ 0.2 µM.

`Cc1cc(NC(=O)Nc2cnc3c(Cl)cnn3c2C2CCCC2)cnc1-c1noc(CCCCN2CCN(c3ccc4c(c3)CN(C3CCC(=O)NC3=O)C4=O)CC2)n1` (centres unmarked) [Compound 20, 1-(3-chloro-7-cyclopentyl-pyrazolo[1,5-a]pyrimidin-6-yl)-3-[6-[5-[4-[4-[2-(2,6-dioxo-3-piperidyl)-1-oxo-isoindolin-5-yl]piperazin-1-yl]butyl]-1,2,4-oxadiazol-3-yl]-5-methyl-3-pyridyl]urea]: the EC50 lay in the range of 1 to 5 µM.

For `O=C1CCC(N2Cc3cc(N4CCN(CCCCCCc5nc(-c6ncc(NC(=O)Nc7cnc8ccnn8c7C7CC7)cc6Cl)no5)CC4)ccc3C2=O)C(=O)N1` (centres unmarked) [Compound 159, 1-[5-chloro-6-[5-[6-[4-[2-(2,6-dioxo-3-piperidyl)-1-oxo-isoindolin-5-yl]piperazin-1-yl]hexyl]-1,2,4-oxadiazol-3-yl]-3-pyridyl]-3-(7-cyclopropylpyrazolo[1,5-a]pyrimidin-6-yl)urea], the EC50 is ≤ 0.2 µM.

As for `O=C1CCC(N2Cc3cc(N4CCN(C(=O)CCCCCc5nnc(-c6ccc(NC(=O)Nc7cnc8ccnn8c7C7CCCC7)cn6)s5)CC4)ccc3C2=O)C(=O)N1` (centres unmarked) [Compound 128, 1-(7-cyclopentylpyrazolo[1,5-a]pyrimidin-6-yl)-3-[6-[5-[6-[4-[2-(2,6-dioxo-3-piperidyl)-1-oxo-isoindolin-5-yl]piperazin-1-yl]-6-oxo-hexyl]-1,3,4-thiadiazol-2-yl]-3-pyridyl]urea], the EC50 was 1 to 5 µM.

As for `Cc1cc2ncc(NC(=O)Nc3cnc(-c4noc(CCCCCCN5CCN(c6ccc7c(c6)CN(C6CCC(=O)NC6=O)C7=O)CC5)n4)c(C)c3)c(C3CCCC3)n2n1` (centres unmarked) [Compound 83, 1-(7-cyclopentyl-2-methyl-pyrazolo[1,5-a]pyrimidin-6-yl)-3-[6-[5-[6-[4-[2-(2,6-dioxo-3-piperidyl)-1-oxo-isoindolin-5-yl]piperazin-1-yl]hexyl]-1,2,4-oxadiazol-3-yl]-5-methyl-3-pyridyl]urea], the EC50 was ≤ 0.2 µM.

As to `Cc1nn(CCCCC(=O)N2CCN(c3ccc4c(c3)CN(C3CCC(=O)NC3=O)C4=O)CC2)cc1NC(=O)Nc1cnc2ccnn2c1C(C)C` (centres unmarked) [Compound 164, 1-[1-[5-[4-[2-(2,6-dioxo-3-piperidyl)-1-oxo-isoindolin-5-yl]piperazin-1-yl]-5-oxo-pentyl]-3-methyl-pyrazol-4-yl]-3-(7-isopropylpyrazolo[1,5-a]pyrimidin-6-yl)urea], the EC50 is > 5 µM.
